Reference: article PMC3006453 (Journal of structural biology, 2010)
Entries after “also recorded” stand apart in the source; their conditions may differ. Like-named read-outs stand apart in the source and are kept apart here.

Columns and labels:
AtMTAN2 = conditions: ref Siu et al., 2008a; cited from earlier work
EcMTAN-Glu174Gln = EcMTAN-Glu174Gln (Escherichia coli, UniProt P0AF12, E174Q); assay: Isothermal titration calorimetry, ligand binding to EcMTAN-Glu174Gln mutant; conditions: for N: ITC stoichiometry; for ΔH / −TΔS: pH 7.5, 25 °C
AtMTAN1 [1] = biological target: T1, AtMTAN1 (Arabidopsis thaliana, UniProt Q9T0I8); assay: Xanthine oxidase-coupled spectrophotometric assay of substrate hydrolysis; type: biochemical
EcMTAN = conditions: substrate SAH; no reference and method not given
AtMTAN1 [2] = biological target: T1, AtMTAN1; conditions: ref Siu et al., 2008a, cited from earlier work; for hydrolysis of substrates with extended 5′-substituents by AtMTAN1: previous kinetics studies
AtMTAN1-Glu202Gln = AtMTAN1-Glu202Gln (Arabidopsis thaliana, UniProt Q9T0I8, E202Q); assay: Isothermal titration calorimetry, ligand binding to AtMTAN1-Glu202Gln mutant
AtMTAN1 [3] = biological target: T1, AtMTAN1; assay: Isothermal titration calorimetry, ligand binding to wild-type AtMTAN1
[4] = ITC, 50 mM sodium-HEPES pH 7.5, 25 °C, single-binding site model
[5] = ITC stoichiometry, single-binding site model

Nc1ncnc2c1ncn2[C@@H]1O[C@H](CSCC[C@H](N)C(=O)O)[C@@H](O)[C@H]1O [SAH, S-adenosylhomocysteine]
activity towards the substrate (AtMTAN2): 14%
Kd (EcMTAN-Glu174Gln): 9.3 ± 0.4 µM
N (EcMTAN-Glu174Gln; single-binding site model): 0.94 ± 0.01
ΔH (EcMTAN-Glu174Gln; ITC): -7.9 ± 0.1 kcal/mol
−TΔS (EcMTAN-Glu174Gln; ITC): 1.0 kcal/mol
catalytic activity (hydrolysis) of AtMTAN1 towards the substrate (AtMTAN1 [1]; kinetics and ITC studies, 10- and 30-min durations): does not hydrolyze; also recorded: did not detect catalytic activity
Km (EcMTAN): 1.3 ± 0.2 µM
activity of AtMTAN1 towards the substrate (AtMTAN1 [2]): completely inactive
Kd (AtMTAN1-Glu202Gln): > 600 µM
Kd (AtMTAN1-Glu202Gln; [4]): No interaction is detected; also recorded: Not detected

5′-methylthioadenosine [MTA]
N (EcMTAN-Glu174Gln; single-binding site model): 0.94 ± 0.01
Kd (EcMTAN-Glu174Gln; [4]): 4.8 ± 0.4 µM
ΔH (EcMTAN-Glu174Gln; ITC): -9.6 ± 0.1 kcal/mol
−TΔS (EcMTAN-Glu174Gln; ITC): 2.4 kcal/mol
Km (AtMTAN1 [1]; substrate MTA, wild-type AtMTAN1, no reference given): 1.5 ± 0.2 µM
N (AtMTAN1-Glu202Gln; [5]): 0.97 ± 0.04
Kd (AtMTAN1-Glu202Gln; [4]): 94.8 ± 4 µM
ΔH (AtMTAN1-Glu202Gln; ITC, pH 7.5, 25 °C): 5.6 ± 0.3 kcal/mol
−TΔS (AtMTAN1-Glu202Gln; ITC, pH 7.5, 25 °C): -11.1 kcal/mol

Nc1ncnc2[nH]cnc12 [ADE, adenine]
Kd (AtMTAN1 [3]): 1.7 ± 0.1 µM
N (AtMTAN1 [3]; [5]): 0.99 ± 0.003
ΔH (AtMTAN1 [3]; ITC, pH 7.5, 25 °C): -10.3 ± 0.5 kcal/mol
−TΔS (AtMTAN1 [3]; ITC, pH 7.5, 25 °C): 2.4 kcal/mol

5′-isobutylthioadenosine
hydrolysis of substrates with extended 5′-substituents by AtMTAN1 (AtMTAN1 [2]): can hydrolyze

5′-butylthioadenosine
hydrolysis of substrates with extended 5′-substituents by AtMTAN1 (AtMTAN1 [2]): can hydrolyze
